# Conditions: not given
SMILES,log10 Koc (L/kg),log10 vapour pressure (mmHg),melting point [°C],boiling point [°C],ready biodegradability,log10 Henry constant (atm·m³/mol)
CCCSP(=S)(OCC)Oc1ccc(SC)cc1 (stereo unspecified),4.08,-5.92,-15,,,
C#CC=C,,3.13,,5.1,,
C=C(C)C(=O)CC,,,-69.5,118,,
S=C=Nc1ccc(N=C=S)cc1,,,132,,,
CCN(O)CC,,0.526,10,133,not readily biodegradable,
COC(=O)CCCl,,,,156,,
Cc1cccc(Br)c1C,,,,214,,
O=C(O)c1cc(Cl)c(C(=O)O)cc1Cl,,,306,,,
Clc1cccc(-c2cccc(Cl)c2)c1,,-3.19,29,320,,-3.63
FC(F)OC(F)F,,,-123,6.35,,
C=CCN1CCCC1CNC(=O)c1cc(S(=O)(=O)NC)c(N)cc1OC (stereo unspecified),,,169,,,
NC(N)=O.O=P(O)(O)O,,,120,,,
CCCCC1CCC(OC(=O)C2CCC(CCCC)CC2)CC1 (stereo unspecified),,,,,readily biodegradable,
CC1=CC(=O)CCC1(C)C,,,,217,,
CC(=O)Nc1ccccc1O,,,208,,readily biodegradable,
COc1cc(O)cc(O)c1,,,80.3,,,
CCCC(=O)N(CC)CC,,,,206,,
O=C1c2ccccc2C(=O)C1c1nc2ccccc2c(Br)c1O,,,,,not readily biodegradable,
CC(=O)Nc1ccccc1[N+](=O)[O-],,,94,,,
Cc1ccc(O)cc1[N+](=O)[O-],,,,,not readily biodegradable,
CCCCCCC1CCCCC1,,-0.943,-43,224,,
C[C@]1(C(=O)O)CCC[C@]2(C)c3cc(O)ccc3CC[C@@H]12,,,194,,,
CC=C(CC)C(C)C(=O)CC (stereo unspecified),,,74.5,,,
CCOCC(=O)O,,,,206,,
C=CC[C@H](O)CCC,,,,152,,

SMILES,log10 Koc (L/kg),log10 vapour pressure (mmHg),melting point [°C],boiling point [°C],ready biodegradability,log10 Henry constant (atm·m³/mol)
CCc1cccc(-c2ccccc2)c1,,,-27.5,284,,
CCc1ccccc1[N+](=O)[O-],,,-12.3,232,not readily biodegradable,
COc1ccc(-c2cc(=O)c3c(O)cc(O)cc3o2)cc1O,,,254,,,
O=[N+]([O-])c1cccc2c([N+](=O)[O-])cccc12,,,219,,not readily biodegradable,
C#CC(C)(C)Cl,,,-61,76,,
C1=CCCC1,,2.58,-135,44.2,readily biodegradable,
N#CC(F)(Cl)Cl,,,-110,33,,
OC(c1ccc(F)cc1)(c1cncnc1)c1ccccc1Cl (stereo unspecified),,,126,,,
CC(C)OC(=O)c1cc(C(=O)OC(C)C)cc([N+](=O)[O-])c1,,,65,,,
CNC(=O)CSP(=S)(OC)OC,1.2,-4.73,52,,not readily biodegradable,
C1SCSCS1,,,220,,,
CCCCCC(=O)OCCCC,,,-64.3,208,,
CCCC(=O)Cl,,,-89,102,,
C=Cc1ccccn1,,0.444,,160,not readily biodegradable,
O=C(O)c1cnc(O)nc1O,,,283,,,
C=CCCCCCCCCO,,,,236,,
CCCCC/C=C\C/C=C\C/C=C\C/C=C\CCCC(=O)O,,,-49.5,,,
FC(F)(F)C(Cl)(Cl)C(Cl)(Cl)C(F)(F)F,,,83.5,131,,
CN1CCNCC1,,,-6,138,,
Clc1ccc(C(Cl)(Cl)Cl)c(Cl)c1,,,,,not readily biodegradable,
C=CC#N,,2.04,-83.5,77.3,readily biodegradable,-3.86
CCCCCCCCCCCI,,-2.35,,,,
CC(C)C(=O)OCCc1ccccc1,,,,250,,
CCOC(=O)CNc1ccccc1,,,58,274,,

# Same assay, conditions: fish
SMILES,log10 BCF,log10 biotransformation half-life (days)
"CC1(C)[C@H](C(=O)OCc2cccc(Oc3ccccc3)c2)[C@@H]1C=C(Cl)Cl (single isomer, unassigned)",2.65,0.37
O=C1c2ccccc2C(=O)C1c1nc2ccccc2c(Br)c1O,1.14,
Cc1ccc(O)cc1[N+](=O)[O-],1,-0.8
CCCCCCC1CCCCC1,,0.7
CCc1ccccc1[N+](=O)[O-],1.11,-0.56
CNC(=O)CSP(=S)(OC)OC,0.2,-1.01

# From the OPERA property sets (Mansouri et al. 2018)
